Results reported in PubChem BioAssay AID1259407 (Chemical Carcinogenesis Research Information System (CCRIS), 2018).
Calls of active or inactive are those of the source. How the calls were made is not given here.

System: CCRIS mutagenicity, Ames/micronucleus/aberration tests
Experiment: CCRIS mutagenicity studies

C=C(C)CCl
mutagenic call (End Point: IN VITRO CHROMOSOMAL ABERRATIONS, Test System: CHL CELLS, Metabolic Activation: RAT, LIVER, S-9, SODIUM PHENOBARBITAL AND 5,6-BENZOFLAVONE): active; positive (structural changes)
mutagenic call (Test System: AMES SALMONELLA TYPHIMURIUM, Strain/Indicator: TA97, Metabolic Activation: HAMSTER, LIVER, S-9, AROCLOR 1254 (10 OR 30%), Method: PREINCUBATION): inactive; negative
mutagenic call (Test System: AMES SALMONELLA TYPHIMURIUM, Strain/Indicator: TA97, Metabolic Activation: NONE, Method: PREINCUBATION): inactive; negative
mutagenic call (Test System: AMES SALMONELLA TYPHIMURIUM, Strain/Indicator: TA97, Metabolic Activation: RAT, LIVER, S-9, AROCLOR 1254 (10 OR 30%), Method: PREINCUBATION): inactive; negative
mutagenic call (Test System: AMES SALMONELLA TYPHIMURIUM, Strain/Indicator: TA98, Metabolic Activation: HAMSTER, LIVER, S-9, AROCLOR 1254 (10 OR 30%), Method: PREINCUBATION): inactive; negative
mutagenic call (Test System: AMES SALMONELLA TYPHIMURIUM, Strain/Indicator: TA98, Metabolic Activation: NONE, Method: PREINCUBATION): inactive; negative
mutagenic call (Test System: AMES SALMONELLA TYPHIMURIUM, Strain/Indicator: TA98, Metabolic Activation: RAT LIVER S-9, PHENOBARBITAL AND BETA-NAPHTHOFLAVONE, Method: PREINCUBATION): inactive; negative
mutagenic call (Test System: AMES SALMONELLA TYPHIMURIUM, Strain/Indicator: TA98, Metabolic Activation: RAT, LIVER, S-9, AROCLOR 1254 (10 OR 30%), Method: PREINCUBATION): inactive; negative
mutagenic call (Test System: AMES SALMONELLA TYPHIMURIUM, Strain/Indicator: TA100, Metabolic Activation: HAMSTER, LIVER, S-9, AROCLOR 1254 (10 OR 30%), Method: PREINCUBATION): inactive; negative
mutagenic call (Test System: AMES SALMONELLA TYPHIMURIUM, Strain/Indicator: TA100, Metabolic Activation: NONE, Method: LIQUID SUSPENSION): active; positive
mutagenic call (Test System: AMES SALMONELLA TYPHIMURIUM, Strain/Indicator: TA100, Metabolic Activation: NONE, Method: PREINCUBATION): inactive; negative
mutagenic call (Test System: AMES SALMONELLA TYPHIMURIUM, Strain/Indicator: TA100, Metabolic Activation: RAT LIVER S-9, PHENOBARBITAL AND BETA-NAPHTHOFLAVONE, Method: PREINCUBATION): inactive; negative
mutagenic call (Test System: AMES SALMONELLA TYPHIMURIUM, Strain/Indicator: TA100, Metabolic Activation: RAT, LIVER, S-9, AROCLOR 1254 (10 OR 30%), Method: PREINCUBATION): inactive; negative
mutagenic call (Test System: AMES SALMONELLA TYPHIMURIUM, Strain/Indicator: TA100, Metabolic Activation: RAT, LIVER, S-9, Method: LIQUID SUSPENSION): active; positive
mutagenic call (Test System: AMES SALMONELLA TYPHIMURIUM, Strain/Indicator: TA102, Metabolic Activation: NONE, Method: PREINCUBATION): inactive; negative
mutagenic call (Test System: AMES SALMONELLA TYPHIMURIUM, Strain/Indicator: TA102, Metabolic Activation: RAT LIVER S-9, PHENOBARBITAL AND BETA-NAPHTHOFLAVONE, Method: PREINCUBATION): inactive; negative
mutagenic call (Test System: AMES SALMONELLA TYPHIMURIUM, Strain/Indicator: TA102, Metabolic Activation: RAT, LIVER, S-9, PHENOBARBITAL AND 5,6-BENZOFLAVONE, Method: STANDARD PLATE): inactive; negative
mutagenic call (Test System: AMES SALMONELLA TYPHIMURIUM, Strain/Indicator: TA104, Metabolic Activation: NONE, Method: PREINCUBATION): inactive; negative
mutagenic call (Test System: AMES SALMONELLA TYPHIMURIUM, Strain/Indicator: TA104, Metabolic Activation: RAT LIVER S-9, PHENOBARBITAL AND BETA-NAPHTHOFLAVONE, Method: PREINCUBATION): inactive; negative
mutagenic call (Test System: AMES SALMONELLA TYPHIMURIUM, Strain/Indicator: TA1535, Metabolic Activation: HAMSTER, LIVER, S-9, AROCLOR 1254 (10 OR 30%), Method: PREINCUBATION): inactive; negative
mutagenic call (Test System: AMES SALMONELLA TYPHIMURIUM, Strain/Indicator: TA1535, Metabolic Activation: NONE, Method: PREINCUBATION): inactive; negative
mutagenic call (Test System: AMES SALMONELLA TYPHIMURIUM, Strain/Indicator: TA1535, Metabolic Activation: RAT LIVER S-9, PHENOBARBITAL AND BETA-NAPHTHOFLAVONE, Method: PREINCUBATION): inactive; negative
mutagenic call (Test System: AMES SALMONELLA TYPHIMURIUM, Strain/Indicator: TA1535, Metabolic Activation: RAT, LIVER, S-9, AROCLOR 1254 (10 OR 30%), Method: PREINCUBATION): inactive; negative
mutagenic call (Test System: AMES SALMONELLA TYPHIMURIUM, Strain/Indicator: TA1537, Metabolic Activation: HAMSTER, LIVER, S-9, AROCLOR 1254 (10 OR 30%), Method: PREINCUBATION): inactive; negative
mutagenic call (Test System: AMES SALMONELLA TYPHIMURIUM, Strain/Indicator: TA1537, Metabolic Activation: NONE, Method: PREINCUBATION): inactive; negative
mutagenic call (Test System: AMES SALMONELLA TYPHIMURIUM, Strain/Indicator: TA1537, Metabolic Activation: RAT LIVER S-9, PHENOBARBITAL AND BETA-NAPHTHOFLAVONE, Method: PREINCUBATION): inactive; negative
mutagenic call (Test System: AMES SALMONELLA TYPHIMURIUM, Strain/Indicator: TA1537, Metabolic Activation: RAT, LIVER, S-9, AROCLOR 1254 (10 OR 30%), Method: PREINCUBATION): inactive; negative
mutagenic call (Test System: AMES SALMONELLA TYPHIMURIUM, Strain/Indicator: TA2638, Metabolic Activation: RAT, LIVER, S-9, PHENOBARBITAL AND 5,6-BENZOFLAVONE, Method: STANDARD PLATE): inactive; negative
mutagenic call (Test System: E. COLI, Strain/Indicator: WP2 (PKM101), Metabolic Activation: RAT, LIVER, S-9, PHENOBARBITAL AND 5,6-BENZOFLAVONE, Method: STANDARD PLATE): inactive; negative
mutagenic call (Test System: E. COLI, Strain/Indicator: WP2 UVRA (PKM101), Metabolic Activation: RAT, LIVER, S-9, PHENOBARBITAL AND 5,6-BENZOFLAVONE, Method: STANDARD PLATE): inactive; negative
mutagenic call (Test System: E.COLI, Strain/Indicator: WP2UVRA/PKM101, Metabolic Activation: NONE, Method: PREINCUBATION): inactive; negative
mutagenic call (Test System: E.COLI, Strain/Indicator: WP2UVRA/PKM101, Metabolic Activation: RAT LIVER S-9, PHENOBARBITAL AND BETA-NAPHTHOFLAVONE, Method: PREINCUBATION): active; positive
mutagenic call (Test System: E.COLI, Strain/Indicator: WP2UVRA, Metabolic Activation: NONE, Method: PREINCUBATION): inactive; negative
mutagenic call (Test System: E.COLI, Strain/Indicator: WP2UVRA, Metabolic Activation: RAT LIVER S-9, PHENOBARBITAL AND BETA-NAPHTHOFLAVONE, Method: PREINCUBATION): inactive; negative

CCCC(=O)Nc1snc2ccc(Cl)cc12
mutagenic call (Test System: AMES SALMONELLA TYPHIMURIUM, Strain/Indicator: TA100, Metabolic Activation: NONE, Method: STANDARD PLATE): inactive; negative
mutagenic call (Test System: AMES SALMONELLA TYPHIMURIUM, Strain/Indicator: TA100, Metabolic Activation: S-9, Method: STANDARD PLATE): inactive; negative
mutagenic call (Test System: AMES SALMONELLA TYPHIMURIUM, Strain/Indicator: TA1537, Metabolic Activation: NONE, Method: STANDARD PLATE): inactive; negative
mutagenic call (Test System: AMES SALMONELLA TYPHIMURIUM, Strain/Indicator: TA1537, Metabolic Activation: S-9, Method: STANDARD PLATE): inactive; negative

Nc1ccc2cccc3c2c1-c1ccccc1-3
mutagenic call (Test System: AMES SALMONELLA TYPHIMURIUM, Strain/Indicator: TA98, Metabolic Activation: RAT, LIVER, S-9, AROCLOR 1254 (2 OR 4%), Method: STANDARD PLATE): active; positive
mutagenic call (Test System: AMES SALMONELLA TYPHIMURIUM, Strain/Indicator: TA100, Metabolic Activation: RAT, LIVER, S-9, AROCLOR 1254 (4%), Method: STANDARD PLATE): active; positive
mutagenic call (Test System: AMES SALMONELLA TYPHIMURIUM, Strain/Indicator: TA1535, Metabolic Activation: RAT, LIVER, S-9, AROCLOR 1254 (4%), Method: STANDARD PLATE): inactive; negative
mutagenic call (Test System: AMES SALMONELLA TYPHIMURIUM, Strain/Indicator: TA1537, Metabolic Activation: RAT, LIVER, S-9, AROCLOR 1254 (4%), Method: STANDARD PLATE): active; positive
